{
  "source": "patent US12209091B2",
  "about": "“Isoindolinone derivatives as selective allosteric inhibitors of Egfr mutant cancers” (Hoffmann-La Roche Inc., priority 2018, dated 2025)",
  "biological_target": "T1, Phospho EGFR TMLR (H1975 cells) (Homo sapiens, UniProt P00533, L858R/T790M)",
  "T1 construct": "H1975 cell line (CRL-5908; Lot BA70803) was obtained from American Type Culture Collection; host or cells: H1975",
  "T1 sequence (P00533 25-1210 T790M/L858R)": "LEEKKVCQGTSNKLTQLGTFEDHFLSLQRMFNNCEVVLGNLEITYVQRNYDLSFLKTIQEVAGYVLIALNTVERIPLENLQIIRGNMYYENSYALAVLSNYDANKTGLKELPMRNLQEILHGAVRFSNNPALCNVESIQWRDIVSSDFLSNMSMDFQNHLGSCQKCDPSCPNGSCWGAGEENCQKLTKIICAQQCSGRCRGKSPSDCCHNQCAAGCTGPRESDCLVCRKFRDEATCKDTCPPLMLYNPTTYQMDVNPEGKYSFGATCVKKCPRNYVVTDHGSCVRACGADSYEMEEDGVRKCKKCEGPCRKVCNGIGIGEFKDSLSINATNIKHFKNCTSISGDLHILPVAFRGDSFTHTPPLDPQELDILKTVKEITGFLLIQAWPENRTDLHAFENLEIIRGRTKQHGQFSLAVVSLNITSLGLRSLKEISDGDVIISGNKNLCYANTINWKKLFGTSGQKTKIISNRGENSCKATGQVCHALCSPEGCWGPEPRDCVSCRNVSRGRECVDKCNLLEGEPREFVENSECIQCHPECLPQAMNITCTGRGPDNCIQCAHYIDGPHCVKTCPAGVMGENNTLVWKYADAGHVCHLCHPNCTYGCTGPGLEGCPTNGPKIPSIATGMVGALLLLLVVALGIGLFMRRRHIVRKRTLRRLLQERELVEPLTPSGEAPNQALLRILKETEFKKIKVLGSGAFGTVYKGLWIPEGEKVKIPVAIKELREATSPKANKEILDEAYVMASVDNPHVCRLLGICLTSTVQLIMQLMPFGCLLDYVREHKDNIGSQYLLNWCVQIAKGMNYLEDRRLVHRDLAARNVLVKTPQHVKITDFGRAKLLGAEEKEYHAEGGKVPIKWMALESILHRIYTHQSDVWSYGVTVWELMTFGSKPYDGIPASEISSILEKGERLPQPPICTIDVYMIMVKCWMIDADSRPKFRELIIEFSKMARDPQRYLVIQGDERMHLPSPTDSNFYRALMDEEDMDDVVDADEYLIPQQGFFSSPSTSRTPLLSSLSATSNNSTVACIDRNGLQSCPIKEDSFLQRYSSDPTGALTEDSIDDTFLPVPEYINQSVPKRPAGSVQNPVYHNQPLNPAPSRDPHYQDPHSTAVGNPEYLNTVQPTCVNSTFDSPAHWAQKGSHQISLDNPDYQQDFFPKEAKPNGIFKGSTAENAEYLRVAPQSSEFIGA",
  "experiment": "HTRF Phospho EGFR TMLR assay (cellular), H1975",
  "format": "cell-based",
  "settings": "H1975 cell line, 16 hours compound incubation, Phospho-EGFR HTRF readout",
  "procedure": "HTRF Phospho EGFR TMLR Assay (Cellular)\nH1975 cell line (CRL-5908; Lot BA70803) was obtained from American Type Culture Collection (Manassas, VA, USA). Cells were maintained at 37° C., 5% CO2 in complete Media RPMI 1640 without phenol red containing 0.3 mg/ml glutamine, 100 IU/ml penicillin, and […] streptomycin (Gibco, 15140-122) supplemented with 10% fetal bovine serum (FBS, Gibco, 10091-148). Compounds were diluted into starving medium RPMI 1640 Media (Gibco, 11835-030) without phenol red containing 0.3 mg/ml glutamine, 100 IU/ml penicillin, and […] streptomycin (Gibco).\nCells were cultured for 24 h in a 384-well plate (Greiner Bio-One, Nr. 784-080; 5000 cells/well) using 8 μl of complete medium/well. Then 4 μl/well of the 3× compound solution, containing a factor 3 dilution series of the compound or DMSO in starving medium, were added to the cells (final DMSO 0.33%). After 16 hours at 37° C., 5% CO2, 95% rel. humidity cells were lysed by adding to the compound mix 4 μl/well of the supplemented lysis buffer (Cis-bio, Phospho-EGFR HTRF kit, 64EG1PEH), followed by incubation for 30 min at room temperature with shaking (400 rpm). Then 4 μl of a mixture of anti-Phospho-EGFR Cryptate and of anti-Phospho-EGFR-d2 antibody solutions prepared in the detection buffer was added. The plates were then incubated for 4 h at room temperature before reading the fluorescence emission at 620 and 665 nm using an Envision reader (Perkin Elmer).",
  "data": [
    {"smiles": "CN1CCN(Cc2ccc(C#Cc3cc(F)c4c(c3)C(=O)N(C(C(=O)Nc3nccs3)c3ncn5c3CCC5)C4)cc2)CC1", "note": "(racemic) [Example 1, (2RS)-2-(6,7-Dihydro-5H-pyrrolo[1,2-c]imidazol-1-yl)-2-[4-fluoro-6-[2-[4-[(4-methylpiperazin-1-yl)methyl]phenyl]ethynyl]-1-oxo-isoindolin-2-yl]-N-thiazol-2-yl-acetamide]", "values": [
      {"measurement": "IC50", "result": 3, "unit": "nM"}
    ]},
    {"smiles": "O=C(Nc1nccs1)C(c1ncn2c1CCC2)N1Cc2c(Cl)cc(-c3ccc(N4CCC(O)CC4)cc3)cc2C1=O", "note": "(racemic) [Example 11, (2RS)-2-[4-Chloro-6-[4-(4-hydroxy-1-piperidyl)phenyl]-1-oxo-isoindolin-2-yl]-2-(6,7-dihydro-5H-pyrrolo[1,2-c]imidazol-1-yl)-N-thiazol-2-yl-acetamide]", "values": [
      {"measurement": "IC50", "result": 2, "unit": "nM"}
    ]},
    {"smiles": "O=C(Nc1nccs1)C(c1ncn2c1CCC2)N1Cc2c(Cl)cc(-c3ccc(N4CCC(O)CC4)nc3)cc2C1=O", "note": "(racemic) [Example 8, (2RS)-2-[4-Chloro-6-[6-(4-hydroxy-1-piperidyl)-3-pyridyl]-1-oxo-isoindolin-2-yl]-2-(6,7-dihydro-5H-pyrrolo[1,2-c]imidazol-1-yl)-N-thiazol-2-yl-acetamide]", "values": [
      {"measurement": "IC50", "result": 2, "unit": "nM"}
    ]},
    {"smiles": "CCN1CCN(c2ccc(-c3cc(F)c4c(c3)C(=O)N(C(C(=O)Nc3nccs3)c3ncn5c3CCC5)C4)cc2)CC1", "note": "(racemic) [Example 5, (2RS)-2-(6,7-Dihydro-5H-pyrrolo[1,2-c]imidazol-1-yl)-2-[6-[4-(4-ethylpiperazin-1-yl)phenyl]-4-fluoro-1-oxo-isoindolin-2-yl]-N-thiazol-2-yl-acetamide]", "values": [
      {"measurement": "IC50", "result": 3, "unit": "nM"}
    ]},
    {"smiles": "O=C(Nc1nccs1)C(c1ncn2c1CCC2)N1Cc2c(Cl)cc(C#Cc3ccc(CN4CCC(O)CC4)cc3)cc2C1=O", "note": "(racemic) [Example 9, (2RS)-2-[4-Chloro-6-[2-[4-[(4-hydroxy-1-piperidyl)methyl]phenyl]ethynyl]-1-oxo-isoindolin-2-yl]-2-(6,7-dihydro-5H-pyrrolo[1,2-c]imidazol-1-yl)-N-thiazol-2-yl-acetamide]", "values": [
      {"measurement": "IC50", "result": 4, "unit": "nM"}
    ]},
    {"smiles": "CCN1CCN(c2ccc(-c3cc(F)c4c(c3)C(=O)N(C(C(=O)Nc3nccs3)c3ncn5c3CCC5)C4)cn2)CC1", "note": "(racemic) [Example 4, (2RS)-2-(6,7-Dihydro-5H-pyrrolo[1,2-c]imidazol-1-yl)-2-[6-[6-(4-ethylpiperazin-1-yl)-3-pyridyl]-4-fluoro-1-oxo-isoindolin-2-yl]-N-thiazol-2-yl-acetamide]", "values": [
      {"measurement": "IC50", "result": 4, "unit": "nM"}
    ]},
    {"smiles": "O=C(Nc1nccs1)C(c1ncn2c1CCC2)N1Cc2c(F)cc(C#Cc3ccc(CN4CCC(O)CC4)cc3)c(Cl)c2C1=O", "note": "(racemic) [Example 13, (2RS)-2-[7-chloro-4-fluoro-6-[2-[4-[(4-hydroxy-1-piperidyl)methyl]phenyl]ethynyl]-1-oxo-isoindolin-2-yl]-2-(6,7-dihydro-5H-pyrrolo[1,2-c]imidazol-1-yl)-N-thiazol-2-yl-acetamide]", "values": [
      {"measurement": "IC50", "result": 3, "unit": "nM"}
    ]},
    {"smiles": "O=C(Nc1nccs1)C(c1ncn2c1CCC2)N1Cc2c(F)cc(-c3ccc(N4CCC(O)CC4)cc3)cc2C1=O", "note": "(racemic) [Example 7, (2RS)-2-(6,7-Dihydro-5H-pyrrolo[1,2-c]imidazol-1-yl)-2-[4-fluoro-6-[4-(4-hydroxy-1-piperidyl)phenyl]-1-oxo-isoindolin-2-yl]-N-thiazol-2-yl-acetamide]", "values": [
      {"measurement": "IC50", "result": 1, "unit": "nM"}
    ]},
    {"smiles": "CCN1CCN(c2ccc(-c3cc(Cl)c4c(c3)C(=O)N(C(C(=O)Nc3nccs3)c3ncn5c3CCC5)C4)cc2)CC1", "note": "(racemic) [Example 6, (2RS)-2-[4-Chloro-6-[4-(4-ethylpiperazin-1-yl)phenyl]-1-oxo-isoindolin-2-yl]-2-(6,7-dihydro-5H-pyrrolo[1,2-c]imidazol-1-yl)-N-thiazol-2-yl-acetamide]", "values": [
      {"measurement": "IC50", "result": 4, "unit": "nM"}
    ]},
    {"smiles": "O=C(Nc1nccs1)C(c1ncn2c1CCC2)N1Cc2c(F)cc(-c3ccc(N4CCNCC4)cc3)cc2C1=O", "note": "(racemic) [Example 3, (2RS)-2-(6,7-Dihydro-5H-pyrrolo[1,2-c]imidazol-1-yl)-2-[4-fluoro-1-oxo-6-(4-piperazin-1-ylphenyl)isoindolin-2-yl]-N-thiazol-2-yl-acetamide]", "values": [
      {"measurement": "IC50", "result": 2, "unit": "nM"}
    ]},
    {"smiles": "O=C(Nc1nccs1)C(c1ncn2c1CCC2)N1Cc2c(F)cc(C#Cc3ccc(CN4CCCCC4)cc3)cc2C1=O", "note": "(racemic) [Example 14, (2RS)-2-(6,7-Dihydro-5H-pyrrolo[1,2-c]imidazol-1-yl)-2-[4-fluoro-1-oxo-6-[2-[4-(1-piperidylmethyl)phenyl]ethynyl]isoindolin-2-yl]-N-thiazol-2-yl-acetamide]", "values": [
      {"measurement": "IC50", "result": 4, "unit": "nM"}
    ]},
    {"smiles": "O=C(Nc1nccs1)C(c1ccn2c1CCC2)N1Cc2c(F)cc(C#Cc3ccc(CN4CCC(O)CC4)cc3)cc2C1=O", "note": "(racemic) [Example 10, (2RS)-2-(6,7-Dihydro-5H-pyrrolizin-1-yl)-2-[4-fluoro-6-[2-[4-[(4-hydroxy-1-piperidyl)methyl]phenyl]ethynyl]-1-oxo-isoindolin-2-yl]-N-thiazol-2-yl-acetamide]", "values": [
      {"measurement": "IC50", "result": 8, "unit": "nM"}
    ]},
    {"smiles": "O=C(Nc1nccs1)C(c1ncn2c1CCC2)N1Cc2c(F)cc(C#Cc3ccc(CO)cc3)cc2C1=O", "note": "(racemic) [Example 12, (2RS)-2-(6,7-Dihydro-5H-pyrrolo[1,2-c]imidazol-1-yl)-2-[4-fluoro-6-[2-[4-(hydroxymethyl)phenyl]ethynyl]-1-oxo-isoindolin-2-yl]-N-thiazol-2-yl-acetamide]", "values": [
      {"measurement": "IC50", "result": 2, "unit": "nM"}
    ]},
    {"smiles": "O=C(Nc1nccs1)C(c1ncn2c1CCC2)N1Cc2c(F)cc(C#Cc3ccc(CN4CCC(O)CC4)cc3)cc2C1=O", "note": "(racemic) [Example 2, (2RS)-2-(6,7-Dihydro-5H-pyrrolo[1,2-c]imidazol-1-yl)-2-[4-fluoro-6-[2-[4-[(4-hydroxy-1-piperidyl)methyl]phenyl]ethynyl]-1-oxo-isoindolin-2-yl]-N-thiazol-2-yl-acetamide]", "values": [
      {"measurement": "IC50", "result": 1, "unit": "nM"}
    ]}
  ]
}
